Experimental data: paper PMC3608651, “A Broad Profile of Co-Dominant Epitopes Shapes the Peripheral Mycobacterium tuberculosis Specific CD8+ T-Cell Immune Response in South African Patients with Active Tuberculosis” (PLoS ONE, 2013)
Where two headings read alike, the source gives them in different places.

What was measured:
Type in all cases: binding
[1] = molecular target: T1, HLA-A*02:01 (Homo sapiens, UniProt P04439, D140Y/D185E/D98H/E176V/E277Q/G131W/G231S/I119V/I121R/I166T/I218V/L300P/L318F/N151K/N90K/P208A/P217A/Q86G/Q94H/R138H/R169H/T345S); details: time points 0-8 h; time when 50% of peptide has dissociated
[2] = molecular target: T1, HLA-A*02:01; details: peptide quantity for 50% binding saturation
[3] = molecular target: T2, HLA-A*68:01 (Homo sapiens, UniProt P04439, A269V/D185E/E176V/E277Q/E87N/F33Y/G231S/I121M/I166T/I218V/L180W/L300P/L318F/N151K/P208A/P217A/Q86R/R169H/T345S); details: duplicated experiments, positive binder >40%
[4] = molecular target: T3, HLA-A*30:02 (Homo sapiens, UniProt P04439, D101N/D140H/D185E/E176R/F33S/G80R/H175R/K168Q/Q94H/R138E/R41S/V100E)
[5] = molecular target: T3, HLA-A*30:02; details: duplicated experiments, positive binder >40%
[6] = molecular target: T1, HLA-A*02:01; details: plate-bound monomer 0.5 µg/ml, duplicated experiments, positive binder >40%
[7] = molecular target: T3, HLA-A*30:02; details: time points 0-8 h
[8] = molecular target: HLA-B*07:02 (Homo sapiens, UniProt P01889); details: percent relative the binding of positive control peptide […]; duplicated experiments; positive binder >40%
[9] = molecular target: HLA-A*30:01 (Homo sapiens, UniProt P04439, D140H/D185E/E176W/F33S/G80R/H175R/K168Q/R138E/R41S); details: duplicated experiments, positive binder >40%
[10] = molecular target: T4, HLA-B*58:01 (Homo sapiens, UniProt P01889, A329T/C349S/D201E/D98Y/E176V/E187L/E204Q/E69T/G107R/I218V/I90N/K202T/L105A/L119I/N104I/N87E/Q89R/Q94S/R106L/R155S/R180L/R86G/S101N/S121R/S35A/S48A/T118I/V127L/V306I/V36M/Y140S/Y91M); details: duplicated experiments, positive binder >40%
[11] = molecular target: HLA-A*24:02 (Homo sapiens, UniProt P04439, D101N/D140Y/D185E/E176V/E190D/F33S/G103R/G107R/I119L/I121M/I306V/K335N/L105A/L180Q/L300P/N151K/N90K/Q86E/Q94H/R106L/R138H/R89G/T104I/T345S/V100E/W191G/Y123F); details: duplicated experiments, positive binder >40%
[12] = molecular target: HLA-C*07:01 (Homo sapiens, UniProt P10321, K90N/S123Y); details: duplicated experiments, positive binder >40%
[13] = molecular target: T2, HLA-A*68:01; details: time points 0-8 h
[14] = molecular target: T2, HLA-A*68:01
[15] = molecular target: T4, HLA-B*58:01
[16] = molecular target: T4, HLA-B*58:01; details: time points 0-8 h
[17] = percent relative the binding of positive control peptide […]
[18] = peptide titrated 10−4 to 10−9 M
[19] = percent relative the binding of positive control peptide KTGGPIYKR
[20] = percent relative the binding of positive control peptide KTKDIVNGL
[21] = percent relative the binding of positive control peptide IAMESIVIW
[22] = percent relative the binding of positive control peptide RYLKDQQLL
[23] = percent relative the binding of positive control peptide KIQNFRVYY
[24] = percent relative the binding of positive control peptide FLPSDFFPSV
[25] = percent relative the binding of positive control peptide KYFDEHYEY

Substance | O-rate A*02:01 (t1/2) [1] | Aff A*02:01 (ED50) ([2]; […]) | Bind A*68:01 [3, 17] | Aff A*30:02 (ED50) [4] | Bind A*30:02 [5, 17] | Bind A*02:01 [6, 17] | O-rate A*30:02 (t1/2) [7] | Bind B*07:02 [8] | Bind A*24:02 [11, 17] | Aff A*02:01 (ED50) [2, 18] | Bind A*68:01 [3, 19] | Bind A*30:01 [9, 20] | Bind B*58:01 [10, 21] | Bind A*24:02 [11, 22] | Bind A*30:02 [5, 23] | Bind A*02:01 [6, 24] | Bind C*07:01 [12, 25] | also measured
HSMSSTHEA [Rv0288_70–78m1] | 0.3 h | 0.001 M | 0% | 6 nM | 39% | 45% | 0.9 h | – | – | – | – | – | – | – | – | – | – | –
F EW YYQSG L | 0.8 h | 7e-07 M | 10% | – | 26% | 124% | – | 11% | 37% | – | – | – | – | – | – | – | – | Bind A*30:01 [9, 17]: 10%; Bind B*58:01 [10, 17]: 0%; Bind C*07:01 [12, 17]: 15%
GLSIVMPVG | 2.1 h | 7e-08 M | 0% | – | 0% | 100% | – | 0% | 0% | – | – | – | – | – | – | – | – | Bind A*30:01 [9, 17]: 0%; Bind B*58:01 [10, 17]: 0%; Bind C*07:01 [12, 17]: 0%
GT HSWEYWG | 0.3 h | 2E -06 M | 71% | 30000 nM | 79% | 43% | 2.2 h | 3% | 2% | – | – | – | – | – | – | – | – | O-rate A*68:01 (t1/2) [13]: 12 min; Aff A*68:01 (ED50) [14]: 1E -05 M; Aff B*58:01 (ED50) [15]: 300 nM; Bind A*30:01 [9, 17]: 0%; Bind B*58:01 [10, 17]: 58%; O-rate B*58:01 (t1/2) [16]: 2.9 h; Bind C*07:01 [12, 17]: 25%
AMLDHAGDM [Rv0288_10–18m2] | 1.1 h | 8e-08 M | – | 700 nM | 100% | 47% | 0.4 h | – | 13% | – | – | – | – | – | – | – | – | –
IQGNVTSIH [Rv3875_18–26] | 0.2 h | – | – | – | – | – | – | 3% | – | 1e-06 M | 17% | 13% | 7% | 0% | 36% | 51% | 5% | –
ALQNLARTI [Rv3875_68–76] | 1.7 h | – | – | – | – | – | – | 8% | – | 3e-08 M | 0% | 0% | 0% | 0% | 17% | 73% | 0% | –
LLDEGKQSL [Rv3875_28–36] | 4.9 h | – | – | – | – | – | – | 3% | – | 7e-07 M | 4% | 20% | 2% | 0% | 0% | 61% | 19% | –
AMASTEGNV [Rv3875_82–90] | 1.0 h | – | – | – | – | – | 2.5 h | 11% | – | 3e-08 M | 0% | 0% | 0% | 0% | 102% | 87% | 3% | Aff A*30:02 (ED50) [4, 18]: 7 nM
SQIMYNYPT [Rv0288_2–10m1] | 0.7 h | 1e-06 M | – | 4000 nM | 31% | 47% | 0.5 h | – | – | – | – | – | – | – | – | – | – | –
VQQKWDATA [Rv3875_54–62] | 1.2 h | – | – | – | – | – | 1.6 h | 9% | – | 5e-09 M | 0% | 21% | 12% | 0% | 76% | 54% | 9% | Aff A*30:02 (ED50) [4, 18]: 60 nM
